Like-named read-outs stand apart in the source and are kept apart here.
Assays:
Test in all cases: Post-emergence action against weeds, greenhouse pot test, visual scoring
Assay type in all cases: in vivo
[1] = tested on: Zea mays (ZEAMX); conditions: for inhibition at 24 g/ha: Zea mays, post-emergence, read-out: % activity found; for (7) activity found: ZEAMX
Description: (§1) Seeds or rhizome pieces of mono- and dicotyledonous harmful and useful plants were placed in peat pots (diameter 4 cm) filled with sandy loam and then covered with soil. The pots were kept in a greenhouse under optimum conditions. In addition, harmful plants encountered in paddy rice cultivation were cultivated in pots with a water level 2 cm above the soil surface.
(§2) About three weeks after the start of the cultivation, the test plants were treated at the 2- to 3-leaf stage. The herbicides, formulated as powder or liquid concentrates, were, either alone or in the combinations according to the invention, sprayed in various dosages on to the green parts of the plants using an application rate of 600 l of water/ha (converted). For further cultivation of the plants, the pots were then again kept under optimum conditions in a greenhouse.
(§3) The visual scoring of the herbicidal effects was carried out in intervals up to 21 days after the treatment. Scoring was carried out in percent in comparison to the untreated control plants. 0%=no herbicidal activity, 100%=complete herbicidal activity=complete kill.
(§4) The percentages from the treatments with the herbicides alone (=individual application) and with the combinations according to the invention (=mixtures) were employed to calculate interactions using the method of Colby.
(§5) • A, B=activity of components A and B in percent at a dosage of a and b g of ai/ha (=gramm of active substance per hectare), respectively. • E=expected value in % at a dosage of a+b g of ai/ha.

[2] = tested on: Matricaria inodora (MATIN); conditions: for (7) activity found: MATIN, 21 DAT
Description: as §1, §2, §3, §4, §5

[3] = tested on: Lolium multiflorum (LOLMU); conditions: for (7) activity found: LOLMU, 10 DAT
Description: as §1, §2, §3, §4, §5

[4] = tested on: Fallopia (ex Polygonum) convolvulus (POLCO); conditions: for (7) activity found: POLCO, 21 DAT
Description: as §1, §2, §3, §4, §5

[5] = tested on: Avena fatua (AVEFA); conditions: for inhibition at 8 g/ha: Avena fatua, post-emergence, read-out: % activity found; for (7) activity found: AVEFA, 21 DAT
Description: as §1, §2, §3, §4, §5

[6] = tested on: Oryza sativa (ORYSA); conditions: read-out: % activity found
Description: as §1, §2, §3
(§6) The percentages from the treatments with the herbicides alone (=individual application) and with the combinations according to the invention (=mixtures) were employed to calculate interactions using the method of Colby. When the observed efficacies of the mixtures exceed the formal sum of the values of the tests with individual applications, they also exceed the expected value according to Colby, which is calculated using the formula below (cf. S. R. Colby; in Weeds 15 (1967) pp. 20 to 22):
as §5

[7] = tested on: Setaria viridis (SETVI); conditions: 504 h, read-out: % activity found
Description: as §1, §2, §3, §6, §5

[8] = tested on: Alopecurus myosuroides (ALOMY); conditions: read-out: % activity found
Description: as §1, §2, §3, §6, §5

[9] = tested on: Veronica persica (VERPE); conditions: 21 DAT
Description: as §1, §2, §3, §4, §5

[10] = tested on: Abuthilon theophrasti (ABUTH); conditions: 21 DAT, rate (6) B7-4 120
Description: as §1, §2, §3, §4, §5

[11] = tested on: Pharbitis purpurea (PHBPU); conditions: 21 DAT
Description: as §1, §2, §3, §4, §5

[12] = tested on: Viola tricolor (VIOTR); conditions: rate (6) B7-4 40
Description: as §1, §2, §3, §4, §5

[13] = tested on: Triticum aestivum (TRZAS)
Description: as §1, §2, §3, §4, §5

[14] = tested on: Stellaria media (STEME); conditions: 10 DAT
Description: as §1, §2, §3, §4, §5

[15] = Tripleurospermum inodorum, post-emergence, 504 h, read-out: % activity found
[16] = Lolium multiflorum, post-emergence, 240 h, read-out: % activity found
[17] = Fallopia convolvulus, post-emergence, 504 h, read-out: % activity found

Compound: Cc1nn(C)c(O)c1C(=O)c1ccc(C(F)(F)F)cc1S(C)(=O)=O [B1-6, (5-hydroxy-1,3-dimethyl-1H-pyrazol-4-yl)[2-(methylsulfonyl)-4-(trifluoromethyl)phenyl]methanone]
- inhibition at 24 g/ha ([1]; 240 h): 0%
- inhibition at 24 g/ha ([1]; 504 h): 0%
- inhibition at 8 g/ha [2, 15]: 20%
- inhibition at 24 g/ha [2, 15]: 30%
- inhibition at 8 g/ha [3, 16]: 0%
- inhibition at 24 g/ha [3, 16]: 0%
- inhibition at 8 g/ha ([3]; Lolium multiflorum, post-emergence, 504 h, read-out: % activity found): 0%
- inhibition at 8 g/ha [4, 17]: 50%
- inhibition at 24 g/ha [4, 17]: 60%
- inhibition at 8 g/ha ([5]; 240 h): 0%
- inhibition at 8 g/ha ([5]; 504 h): 0%
- inhibition at 8 g/ha ([6]; 240 h): 50%
- inhibition at 8 g/ha ([6]; 504 h): 40%
- inhibition at 24 g/ha ([6]; 504 h): 70%
- inhibition at 8 g/ha [7]: 0%
- inhibition at 24 g/ha [7]: 0%
- inhibition at 8 g/ha ([8]; 240 h): 0%
- inhibition at 24 g/ha ([8]; 240 h): 0%
- inhibition at 8 g/ha ([8]; 504 h): 0%
- inhibition at 24 g/ha ([8]; 504 h): 0%

Compound: CCN(CC)C(=O)n1cnc(S(=O)(=O)c2c(C)cc(C)cc2C)n1 [B7-4, N,N-diethyl-3-[(2,4,6-trimethylphenyl)sulfonyl]-1H-1,2,4-triazole-1-carboxamide]
- (7) activity found ([1]; 10 DAT, rate (6) B7-4 40): 10%
- (7) activity found ([1]; 21 DAT, rate (6) B7-4 40): 0%
- (7) activity found ([1]; 21 DAT, rate (6) B7-4 120): 0%
- (7) activity found ([9]; rate (6) B7-4 40): 0%
- (7) activity found ([9]; rate (6) B7-4 120): 0%
- (7) activity found ([2]; rate (6) B7-4 40): 0%
- (7) activity found ([2]; rate (6) B7-4 120): 0%
- (7) activity found [10]: 20%
- (7) activity found ([11]; rate (6) B7-4 40): 20%
- (7) activity found ([11]; rate (6) B7-4 120): 20%
- (7) activity found ([12]; 10 DAT): 0%
- (7) activity found ([12]; 21 DAT): 0%
- (7) activity found ([3]; rate (6) B7-4 40): 0%
- (7) activity found ([3]; rate (6) B7-4 120): 40%
- (7) activity found ([13]; 10 DAT, rate (6) B7-4 40): 0%
- (7) activity found ([13]; 21 DAT, rate (6) B7-4 40): 0%
- (7) activity found ([13]; 21 DAT, rate (6) B7-4 120): 0%
- (7) activity found ([4]; rate (6) B7-4 40 (Table 82)): 30%
- (7) activity found ([4]; rate (6) B7-4 40 (Table 83)): 30%
- (7) activity found ([4]; rate (6) B7-4 120): 50%
- (7) activity found ([5]; rate (6) B7-4 40 (Table 78)): 0%
- (7) activity found ([5]; rate (6) B7-4 40 (Table 79)): 0%
- (7) activity found ([5]; rate (6) B7-4 120): 30%
- (7) activity found ([14]; rate (6) B7-4 40): 10%
- (7) activity found ([14]; rate (6) B7-4 120): 10%
